According to patent US10124022B2, “Compositions and methods for enhancing the effectiveness of systemic, HIPEC, IP, and related cancer treatments” (ChemoTherapeutics, LLC, priority 2010, dated 2018):
Several values for one entry are separate records, joined by “and”; a condition that tells them apart may be missing. Equal values may be shown once. Read-outs that look alike come from different tables or passages of the source.

Experiments:
[1] = system: HCT-116 cells; experiment: MTS cell viability assay, drugs ± one-hour hyperthermia, cytotoxicity measured after three days (Studies 1-6);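 on all read-outs here: Drug-treated HCT-116 cells held one hour at 42 °C (hyperthermia) or 37 °C, then cultured at 37 °C, viability read by MTS in triplicate wells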; conditions: for % cell survival / growth promoting effect / GI50 / growth inhibition at the concentrations tested / cell survival: three days; for GI50: HCT-116 cells; for effect on the cytotoxicity caused by Selenite: Study 6, FIG. 6c; for cell survival: 200 nM
Procedure: For each study, two plates of HCT-116 cells were seeded in 96-well cell culture plates (2000 cells per well for three-day studies and 10,000 cells for one-day studies). The next day, drugs prepared in 200 μl of culture medium were added to the wells. […] Each treatment was completed in triplicate. One plate was incubated at 37° C. while the other plate was incubated at 42° C. (hyperthermia) for one hour (two hours for study 7 and 8). After the treatment, 4000 freshly harvested cells (cells which were not subjected to hyperthermia) were added to 3 wells of each plate to assess the effect of hyperthermia (for one-day experiments, 20,000 cells will be added). Both plates were incubated at 37° C. for the number of days specified in each study. Cell viability was measured using MTS assay (Promega CellTiter 96 Aqueous MTS Assay reagents).
Cytotoxicity was measured after three days.
The non-chemotherapeutic agent combinations tested were: Vitamin C/Selenite and Vitamin C/Selenite/Quercetin. Cytotoxicity was measured after three days.
The non-chemotherapeutic agent combinations tested were: Vitamin E/Selenite/Quercetin and Selenite/Quercetin. Cytotoxicity was measured after three days.
Tested the cytotoxic effects of combination treatments (±hyperthermia at 42° C. for one hour) with chemotherapeutic reagents (Mitomycin C at 0.2 and 0.8 μM or Cisplatin at 2.5 and 10 μM) and four non-chemotherapeutic reagents (100 nM Vitamin D, 40 μM Vitamin E, 20 μM Selenite and 150 μNA Quercetin). The non-chemotherapeutic agent combinations tested were: Quercetin/Vitamin D/Vitamin E/Selenite, Vitamin E/Selenite, and Vitamin D/Vitamin E/Selenite. Cytotoxicity was measured after three days.
The non-chemotherapeutic agent combinations tested were: Vitamin C/Selenite, Vitamin C/Quercetin, Selenite/Quercetin and Vitamin C/Selenite/Quercetin. Cytotoxicity was measured after three days.

[2] = system: HCT-116 cells; experiment: MTS assay, two-hour drug treatment, drugs replaced with fresh medium, measured after one day (Study 7b); conditions: FIG. 7b
Procedure: For each study, two plates of HCT-116 cells were seeded in 96-well cell culture plates (2000 cells per well for three-day studies and 10,000 cells for one-day studies). The next day, drugs prepared in 200 μl of culture medium were added to the wells. […] Each treatment was completed in triplicate. One plate was incubated at 37° C. while the other plate was incubated at 42° C. (hyperthermia) for one hour (two hours for study 7 and 8). After the treatment, 4000 freshly harvested cells (cells which were not subjected to hyperthermia) were added to 3 wells of each plate to assess the effect of hyperthermia (for one-day experiments, 20,000 cells will be added). […] Cell viability was measured using MTS assay (Promega CellTiter 96 Aqueous MTS Assay reagents).
Tested the short-term cytotoxic effects of combination treatments (±hyperthermia at 42° C. for two hour) with chemotherapeutic reagents (0.2 μM Mitomycin C or 10 μM Cisplatin) and three non-chemotherapeutic reagents (1.25 mM Vitamin C, 20 μM Selenite and 150 μM Quercetin). […] Cytotoxicity was measured with MTS assay immediately after the two-hour drug/hyperthermia treatment. • b. […] Drugs were replaced with fresh medium after the treatment, and the cytotoxic effect was measured after one day. • c. Cells were incubated with drugs for one day before the cytotoxicity was measured.

[3] = Study 4, no chemotherapeutic, 40 μM Vitamin E, 20 μM Selenite, 150 μM Quercetin as named, 37° C.
[4] = Study 4, no chemotherapeutic, 40 μM Vitamin E, 20 μM Selenite, 150 μM Quercetin as named, 42° C. 1 hr
[5] = Study 5, no chemotherapeutic, 100 nM Vitamin D, 40 μM Vitamin E, 20 μM Selenite, 150 μM Quercetin as named, 37° C.
[6] = Study 5, no chemotherapeutic, 100 nM Vitamin D, 40 μM Vitamin E, 20 μM Selenite, 150 μM Quercetin as named, 42° C. 1 hr
[7] = read-out: Growth inhibition (GI50)

Vitamin E
% cell survival ([1]; Study 2, 0.32 μM, 37° C.): 111% | % cell survival ([1]; Study 2, 0.32 μM, 42° C. 1 hr): 95.5% | % cell survival ([1]; Study 2, 1.6 μM, 37° C.): 116% | % cell survival ([1]; Study 2, 1.6 μM, 42° C. 1 hr): 102% | growth promoting effect ([1]; Study 2): slight growth promoting effect at the lower concentrations tested for 37 °C treated group | % cell survival [1, 3]: 105.7% | % cell survival [1, 4]: 81.6% | % cell survival [1, 5]: 112.2% | % cell survival [1, 6]: 95.5% | GI50 [1, 7]: ~90 µM

O=[Se](O)O [Selenite]
effect of hyperthermia treatment on cell growth ([1]; Study 2, 42° C. 1 hr vs 37° C.): No significant effect | % cell survival [1, 3]: 45% | % cell survival [1, 4]: 39.7% and 39.8% | % cell survival [1, 5]: 42.6% | % cell survival [1, 6]: 32.9% | GI50 [1, 7]: ~30 µM

O=C1O[C@H]([C@@H](O)CO)C(O)=C1O [Vitamin C]
GI50 [1]: ~2000 µM | % cell survival ([1]; Study 2, 0.08 mM, 37° C.): 102% | % cell survival ([1]; Study 2, 0.08 mM, 42° C. 1 hr): 92.6% | % cell survival ([1]; Study 2, 0.31 mM, 37° C.): 97.6% | % cell survival ([1]; Study 2, 0.31 mM, 42° C. 1 hr): 89% | effect on the cytotoxicity caused by Selenite [1]: did not appear to modulate the cytotoxicity caused by Selenite

O=c1c(O)c(-c2ccc(O)c(O)c2)oc2cc(O)cc(O)c12 [Quercetin]
% cell survival ([1]; Study 2, 20 μM, 37° C.): 129% | % cell survival ([1]; Study 2, 20 μM, 42° C. 1 hr): 118% | % cell survival ([1]; Study 2, 100 μM, 37° C.): 123% | % cell survival ([1]; Study 2, 100 μM, 42° C. 1 hr): 111% | growth inhibition at the concentrations tested ([1]; Study 2): did not show significant growth inhibition | growth promoting effect ([1]; Study 2): slight growth promoting effect at the lower concentrations tested | cancer cell killing without chemotherapeutic agent, compared to the agents alone ([1]; Study 3, FIG. 3b): did not show enhanced killing | effect on cytotoxicity of the co-administered treatment ([1]; Study 4, FIG. 4b-4d): reduced the cytotoxicity of Selenite | effect on cytotoxicity of the co-administered treatment ([1]; Study 5, FIG. 5b-5e): reduced the cytotoxicity of Selenite/Vit-D/Vit-E | % cell survival [1, 5]: 98.0% | % cell survival [1, 6]: 89.5% | effect on the cytotoxicity caused by Selenite [1]: reduced the cytotoxicity caused by Selenite

Vitamin D
cell survival ([1]; Study 2, 37° C.): 122% | cell survival ([1]; Study 2, 42° C. 1 hr): 110% | growth inhibition at the concentrations tested ([1]; Study 2): did not show significant growth inhibition | growth promoting effect ([1]; Study 2): slight growth promoting effect at the higher concentrations tested

CO[C@@]12[C@H](COC(N)=O)C3=C(C(=O)C(C)=C(N)C3=O)N1C[C@@H]1N[C@@H]12 [Mitomycin C, reference compound]
% cell survival ([1]; Study 3, 0.2 μM Mitomycin C, alone or with 1.25 mM Vitamin C, 20 μM Selenite as named, 37° C.): 35% | % cell survival ([1]; Study 3, 0.2 μM Mitomycin C, alone or with 1.25 mM Vitamin C, 20 μM Selenite as named, 42° C. 1 hr): 36.9% | % cell survival ([1]; Study 3, 0.8 μM Mitomycin C, alone or with 1.25 mM Vitamin C, 20 μM Selenite as named, 37° C.): 16.9% | % cell survival ([1]; Study 3, 0.8 μM Mitomycin C, alone or with 1.25 mM Vitamin C, 20 μM Selenite as named, 42° C. 1 hr): 15.5% | % cell survival ([1]; Study 4, 0.2 μM Mitomycin C, alone or with 40 μM Vitamin E, 20 μM Selenite, 150 μM Quercetin as named, 37° C.): 33.3% | % cell survival ([1]; Study 4, 0.2 μM Mitomycin C, alone or with 40 μM Vitamin E, 20 μM Selenite, 150 μM Quercetin as named, 42° C. 1 hr): 36.5% | % cell survival ([1]; Study 4, 0.8 μM Mitomycin C, alone or with 40 μM Vitamin E, 20 μM Selenite, 150 μM Quercetin as named, 37° C.): 16.4% | % cell survival ([1]; Study 4, 0.8 μM Mitomycin C, alone or with 40 μM Vitamin E, 20 μM Selenite, 150 μM Quercetin as named, 42° C. 1 hr): 22.1% | GI50 [1, 7]: 1.3 µM

N.N.[Cl][Pt][Cl] [Cisplatin, reference compound]
cancer cell killing after 2 hours of treatment, cell survival measured one day later [2]: additional killing effect | % cell survival ([1]; Study 4, 2.5 μM Cisplatin, alone or with 40 μM Vitamin E, 20 μM Selenite, 150 μM Quercetin as named, 37° C.): 74.7% | % cell survival ([1]; Study 4, 2.5 μM Cisplatin, alone or with 40 μM Vitamin E, 20 μM Selenite, 150 μM Quercetin as named, 42° C. 1 hr): 61.7% | % cell survival ([1]; Study 4, 10 μM Cisplatin, alone or with 40 μM Vitamin E, 20 μM Selenite, 150 μM Quercetin as named, 37° C.): 37.5% | % cell survival ([1]; Study 4, 10 μM Cisplatin, alone or with 40 μM Vitamin E, 20 μM Selenite, 150 μM Quercetin as named, 42° C. 1 hr): 37.5% | % cell survival ([1]; Study 5, 2.5 μM Cisplatin, alone or with 100 nM Vitamin D, 40 μM Vitamin E, 20 μM Selenite, 150 μM Quercetin as named, 37° C.): 86.1% | % cell survival ([1]; Study 5, 2.5 μM Cisplatin, alone or with 100 nM Vitamin D, 40 μM Vitamin E, 20 μM Selenite, 150 μM Quercetin as named, 42° C. 1 hr): 76.0% | % cell survival ([1]; Study 5, 10 μM Cisplatin, alone or with 100 nM Vitamin D, 40 μM Vitamin E, 20 μM Selenite, 150 μM Quercetin as named, 37° C.): 52.1% | % cell survival ([1]; Study 5, 10 μM Cisplatin, alone or with 100 nM Vitamin D, 40 μM Vitamin E, 20 μM Selenite, 150 μM Quercetin as named, 42° C. 1 hr): 41.9% | GI50 [1, 7]: 12 µM
